Reference: patent US20240109917A1 (ACTELION PHARMACEUTICALS LTD, priority 2020, published 2024)

Assays:
[1] = molecular target: Tb-labeled inactive PDGFRβ (Homo sapiens (Human), UniProt P09619); assay: PDGFRβ LanthaScreen Assay; format: binding; conditions: read-out: PDGFR Lantha IC50
VEGFR2, unphosphorylated = VEGFR2, unphosphorylated (Homo sapiens (Human), UniProt P35968); assay: VEGFR ADP GLO Assay; format: biochemical
Chain of VEGFR2, unphosphorylated (P35968 20-1356): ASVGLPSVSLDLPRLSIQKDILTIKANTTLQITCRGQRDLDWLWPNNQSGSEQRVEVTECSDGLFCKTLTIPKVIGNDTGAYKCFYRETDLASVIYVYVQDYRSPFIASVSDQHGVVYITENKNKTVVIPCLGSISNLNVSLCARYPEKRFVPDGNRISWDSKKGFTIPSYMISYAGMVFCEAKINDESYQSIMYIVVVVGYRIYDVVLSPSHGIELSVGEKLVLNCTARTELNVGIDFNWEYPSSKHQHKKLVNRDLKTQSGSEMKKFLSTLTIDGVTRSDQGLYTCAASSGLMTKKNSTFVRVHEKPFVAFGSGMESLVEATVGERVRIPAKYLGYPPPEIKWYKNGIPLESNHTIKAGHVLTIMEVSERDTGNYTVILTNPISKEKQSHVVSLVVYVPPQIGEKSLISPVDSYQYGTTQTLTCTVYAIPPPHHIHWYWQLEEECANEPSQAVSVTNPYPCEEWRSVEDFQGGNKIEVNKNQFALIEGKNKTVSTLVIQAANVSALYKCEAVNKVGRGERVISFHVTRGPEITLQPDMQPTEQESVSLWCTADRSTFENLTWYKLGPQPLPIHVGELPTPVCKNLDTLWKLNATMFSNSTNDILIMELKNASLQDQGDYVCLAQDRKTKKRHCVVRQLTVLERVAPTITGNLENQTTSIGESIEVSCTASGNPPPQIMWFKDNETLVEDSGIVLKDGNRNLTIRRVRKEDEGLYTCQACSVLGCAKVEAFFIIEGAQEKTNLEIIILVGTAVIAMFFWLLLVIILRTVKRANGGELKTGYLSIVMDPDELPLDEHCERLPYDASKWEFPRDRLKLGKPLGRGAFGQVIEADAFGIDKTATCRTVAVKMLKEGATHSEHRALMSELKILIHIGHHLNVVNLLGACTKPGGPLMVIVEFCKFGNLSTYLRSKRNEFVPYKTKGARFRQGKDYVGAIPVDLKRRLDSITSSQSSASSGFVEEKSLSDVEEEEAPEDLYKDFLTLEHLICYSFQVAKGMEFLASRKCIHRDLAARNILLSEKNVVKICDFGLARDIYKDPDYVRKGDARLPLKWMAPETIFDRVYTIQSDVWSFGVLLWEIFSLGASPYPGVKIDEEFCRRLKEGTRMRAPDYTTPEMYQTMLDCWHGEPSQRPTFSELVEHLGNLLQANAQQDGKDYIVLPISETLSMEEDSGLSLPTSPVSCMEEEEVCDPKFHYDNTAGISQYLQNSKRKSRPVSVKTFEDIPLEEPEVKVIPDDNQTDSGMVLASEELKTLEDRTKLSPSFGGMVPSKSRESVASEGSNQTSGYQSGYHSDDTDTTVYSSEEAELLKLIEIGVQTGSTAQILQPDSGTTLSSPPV

Chain of Tb-labeled inactive PDGFRβ (P09619 33-1106): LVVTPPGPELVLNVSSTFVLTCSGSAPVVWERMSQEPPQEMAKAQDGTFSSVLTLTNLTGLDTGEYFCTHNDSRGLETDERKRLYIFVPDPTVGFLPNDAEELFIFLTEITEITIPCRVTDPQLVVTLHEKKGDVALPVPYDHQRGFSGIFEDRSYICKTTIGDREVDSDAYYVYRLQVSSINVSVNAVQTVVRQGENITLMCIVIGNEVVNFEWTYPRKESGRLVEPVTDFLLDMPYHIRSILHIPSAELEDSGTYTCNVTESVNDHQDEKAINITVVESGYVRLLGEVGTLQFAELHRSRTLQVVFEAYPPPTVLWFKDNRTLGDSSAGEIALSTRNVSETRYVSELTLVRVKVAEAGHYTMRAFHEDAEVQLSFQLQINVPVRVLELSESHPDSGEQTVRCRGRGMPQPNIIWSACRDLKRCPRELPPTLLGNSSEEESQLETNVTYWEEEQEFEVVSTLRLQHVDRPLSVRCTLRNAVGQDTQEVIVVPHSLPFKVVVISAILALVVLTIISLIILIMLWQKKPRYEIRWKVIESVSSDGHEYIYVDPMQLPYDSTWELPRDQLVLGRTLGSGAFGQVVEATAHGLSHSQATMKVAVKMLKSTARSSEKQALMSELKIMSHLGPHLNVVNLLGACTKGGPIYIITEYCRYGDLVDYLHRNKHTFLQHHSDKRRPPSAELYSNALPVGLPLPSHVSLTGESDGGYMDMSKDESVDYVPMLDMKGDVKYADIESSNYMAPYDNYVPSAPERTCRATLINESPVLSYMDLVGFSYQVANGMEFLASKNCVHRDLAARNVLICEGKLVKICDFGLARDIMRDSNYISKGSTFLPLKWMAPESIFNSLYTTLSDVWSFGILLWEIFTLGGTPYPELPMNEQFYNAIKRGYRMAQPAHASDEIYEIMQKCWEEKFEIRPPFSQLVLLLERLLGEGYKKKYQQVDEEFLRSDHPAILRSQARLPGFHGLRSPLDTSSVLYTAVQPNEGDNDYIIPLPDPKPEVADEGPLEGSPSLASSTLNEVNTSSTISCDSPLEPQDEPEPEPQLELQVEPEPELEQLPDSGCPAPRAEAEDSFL

COCCn1cc(-c2cn3ncc(C(=O)Nc4cc(NC(=O)C5CN(C(C)C)C5)cnc4C)c3s2)cn1 [Example 342, N-(5-(1-isopropylazetidine-3-carboxamido)-2-methylpyridin-3-yl)-2-(1-(2-methoxyethyl)-1H-pyrazol-4-yl)pyrazolo[5,1-b]thiazole-7-carboxamide]
IC50 [1]: 0.0159 µM | IC50 (VEGFR2, unphosphorylated): > 7.5 µM

Cc1ncc(NC(=O)CN2CCC[C@H]2C)cc1NC(=O)c1cnn2cc(-c3cnn(C)c3)sc12 [Example 26, (R)-2-(1-methyl-1H-pyrazol-4-yl)-N-(2-methyl-5-(2-(2-methyl-pyrrolidin-1-yl)acetamido)pyridin-3-yl)pyrazolo[5,1-b]thiazole-7-carboxamide]
IC50 [1]: 0.0117 µM | IC50 (VEGFR2, unphosphorylated): > 7.5 µM

COC/C=C/c1cn2ncc(C(=O)Nc3cc(C(=O)NCCN4CCCC4(C)C)cnc3C)c2s1 [Example 361, (E)-N-(5-((2-(2,2-dimethylpyrrolidin-1-yl)ethyl)carbamoyl)-2-methylpyridin-3-yl)-2-(3-methoxyprop-1-en-1-yl)pyrazolo[5,1-b]thiazole-7-carboxamide]
IC50 [1]: 0.019 µM | IC50 (VEGFR2, unphosphorylated): > 7.5 µM

Cc1ncc(NS(=O)(=O)CCN2CC3CCC2CC3)cc1NC(=O)c1cnn2cc(-c3cnn(C)c3)sc12 [Example 358, N-(5-((2-(2-azabicyclo[2.2.2]octan-2-yl)ethyl)sulfonamido)-2-methylpyridin-3-yl)-2-(1-methyl-1H-pyrazol-4-yl)pyrazolo[5,1-b]thiazole-7-carboxamide]
IC50 [1]: 1.84 µM | IC50 (VEGFR2, unphosphorylated): > 7.5 µM

COc1ncccc1-c1cn2ncc(C(=O)Nc3cc(NC(=O)CN4C[C@@H](CO)OC(C)(C)C4)cnc3C)c2s1 [Example 380, (S)—N-(5-(2-(6-(hydroxymethyl)-2,2-dimethylmorpholino)acetamido)-2-methylpyridin-3-yl)-2-(2-methoxypyridin-3-yl)pyrazolo[5,1-b]thiazole-7-carboxamide]
IC50 [1]: 0.003 µM | IC50 (VEGFR2, unphosphorylated): > 2.5 µM

Cc1ncc(NC(=O)CN2CCC[C@@H]2C)cc1NC(=O)c1cnn2cc(-c3cnn(C)c3)sc12 [Example 27, (S)-2-(1-methyl-1H-pyrazol-4-yl)-N-(2-methyl-5-(2-(2-methyl-pyrrolidin-1-yl)acetamido)pyridin-3-yl)pyrazolo[5,1-b]thiazole-7-carboxamide]
IC50 [1]: 0.0162 µM | IC50 (VEGFR2, unphosphorylated): > 7.5 µM

Cc1ncc(NC(=O)CN2CCCC23CCC3)cc1NC(=O)c1cnn2cc(-c3cnn(CCO)c3)sc12 [Example 29, N-(5-(2-(5-azaspiro[3.4]octan-5-yl)acetamido)-2-methylpyridin-3-yl)-2-(1-(2-hydroxyethyl)-1H-pyrazol-4-yl)pyrazolo[5,1-b]thiazole-7-carboxamide]
IC50 [1]: 0.0034 µM | IC50 (VEGFR2, unphosphorylated): > 7.5 µM

Cc1ncc(NC(=O)CN2CC(C)C2)cc1NC(=O)c1cnn2cc(-c3cnn4c3OCCC4)sc12 [Example 407, 2-(6,7-dihydro-5H-pyrazolo[5,1-b][1,3]oxazin-3-yl)-N-(2-methyl-5-(2-(3-methylazetidin-1-yl)acetamido)pyridin-3-yl)pyrazolo[5,1-b]thiazole-7-carboxamide]
IC50 [1]: 0.0062 µM | IC50 (VEGFR2, unphosphorylated): > 7.5 µM

COCCn1cc(-c2cn3ncc(C(=O)Nc4cc(NC(=O)CN5CCCCCC5)cnc4C)c3s2)cn1 [Example 339, N-(5-(2-(azepan-1-yl)acetamido)-2-methylpyridin-3-yl)-2-(1-(2-methoxyethyl)-1H-pyrazol-4-yl)pyrazolo[5,1-b]thiazole-7-carboxamide]
IC50 [1]: 0.003 µM | IC50 (VEGFR2, unphosphorylated): > 7.5 µM

CCc1ncccc1-c1cn2ncc(C(=O)Nc3cc(NC(=O)CN4CC(C)(C)C4)cnc3C)c2s1 [Example 391, N-(5-(2-(3,3-dimethylazetidin-1-yl)acetamido)-2-methylpyridin-3-yl)-2-(2-ethylpyridin-3-yl)pyrazolo[5,1-b]thiazole-7-carboxamide]
IC50 [1]: 0.0184 µM | IC50 (VEGFR2, unphosphorylated): > 7.5 µM

Cc1ncc(NC(=O)CN2CC(C)(C)C2)cc1NC(=O)c1cnn2cc(-c3cccnc3C)sc12 [Example 390, N-(5-(2-(3,3-dimethylazetidin-1-yl)acetamido)-2-methylpyridin-3-yl)-2-(2-methylpyridin-3-yl)pyrazolo[5,1-b]thiazole-7-carboxamide]
IC50 [1]: 0.0101 µM | IC50 (VEGFR2, unphosphorylated): > 7.5 µM

Cc1ncc(NC(=O)CN2CC3(CCOCC3)C2)cc1NC(=O)c1cnn2cc(-c3cnn4c3OCCC4)sc12 [Example 406, N-(5-(2-(7-oxa-2-azaspiro[3.5]nonan-2-yl)acetamido)-2-methylpyridin-3-yl)-2-(6,7-dihydro-5H-pyrazolo[5,1-b][1,3]oxazin-3-yl)pyrazolo[5,1-b]thiazole-7-carboxamide]
IC50 [1]: 0.0023 µM | IC50 (VEGFR2, unphosphorylated): > 7.5 µM

COc1ncccc1-c1cn2ncc(C(=O)Nc3cc(NC(=O)CN4CC(C)(C)C4)cnc3C)c2s1 [Example 369, N-(5-(2-(3,3-dimethylazetidin-1-yl)acetamido)-2-methylpyridin-3-yl)-2-(2-methoxypyridin-3-yl)pyrazolo[5,1-b]thiazole-7-carboxamide]
IC50 [1]: 0.0014 µM | IC50 (VEGFR2, unphosphorylated): > 7.5 µM

Cc1ncc(NC(=O)CN2C[C@H](C)O[C@@H](C)C2)cc1NC(=O)c1cnn2cc(-c3cc[nH]c3)sc12 [Example 365, N-(5-(2-(2,6-trans-dimethylmorpholino)acetamido)-2-methylpyridin-3-yl)-2-(1H-pyrrol-3-yl)pyrazolo[5,1-b]thiazole-7-carboxamide]
IC50 [1]: 0.0024 µM | IC50 (VEGFR2, unphosphorylated): 0.596 µM

Cc1ncc(NC(=O)C2CN(C(C)C)C2)cc1NC(=O)c1cnn2cc(-c3cnn4c3OCCC4)sc12 [Example 348, 2-(6,7-dihydro-5H-pyrazolo[5,1-b][1,3]oxazin-3-yl)-N-(5-(1-isopropylazetidine-3-carboxamido)-2-methylpyridin-3-yl)pyrazolo[5,1-b]thiazole-7-carboxamide]
IC50 [1]: 0.004 µM | IC50 (VEGFR2, unphosphorylated): > 7.5 µM

Cc1ncc(NC(=O)CN2C[C@H](C)O[C@@H](C)C2)cc1NC(=O)c1cnn2cc(-c3cnn(C4CC4)c3)sc12 (relative stereo) [Example 382, 2-(1-cyclopropyl-1H-pyrazol-4-yl)-N-(5-(2-(trans-2,6-dimethylmorpholino)acetamido)-2-methylpyridin-3-yl)pyrazolo[5,1-b]thiazole-7-carboxamide]
IC50 [1]: 0.0053 µM | IC50 (VEGFR2, unphosphorylated): > 2.5 µM

COCCn1cc(-c2cn3ncc(C(=O)Nc4cc(NC(=O)CN5CCCC5)cnc4C)c3s2)cn1 [Example 337, 2-(1-(2-methoxyethyl)-1H-pyrazol-4-yl)-N-(2-methyl-5-(2-(pyrrolidin-1-yl)acetamido)pyridin-3-yl)pyrazolo[5,1-b]thiazole-7-carboxamide]
IC50 [1]: 0.0462 µM | IC50 (VEGFR2, unphosphorylated): > 7.5 µM

Cc1ncc(NC(=O)[C@H]2CCCN2C(C)C)cc1NC(=O)c1cnn2cc(-c3cnn4c3OCCC4)sc12 [Example 347, (R)-2-(6,7-dihydro-5H-pyrazolo[5,1-b][1,3]oxazin-3-yl)-N-(5-(1-isopropylpyrrolidine-2-carboxamido)-2-methylpyridin-3-yl)pyrazolo[5,1-b]thiazole-7-carboxamide]
IC50 [1]: 0.006 µM | IC50 (VEGFR2, unphosphorylated): > 7.5 µM

COc1cccc(-c2cn3ncc(C(=O)Nc4cc(NC(=O)CN5C[C@H](C)O[C@@H](C)C5)cnc4C)c3s2)n1 (relative stereo) [Example 386, N-(5-(2-(trans-2,6-dimethylmorpholino)acetamido)-2-methylpyridin-3-yl)-2-(6-methoxypyridin-2-yl)pyrazolo[5,1-b]thiazole-7-carboxamide]
IC50 [1]: 0.0025 µM | IC50 (VEGFR2, unphosphorylated): > 0.833 µM

Cc1ncc(NC(=O)CN2CCC(C)(C)C2)cc1NC(=O)c1cnn2cc(-c3cnn(CCO)c3)sc12 [Example 28, N-(5-(2-(3,3-dimethylpyrrolidin-1-yl)acetamido)-2-methylpyridin-3-yl)-2-(1-(2-hydroxyethyl)-1H-pyrazol-4-yl)pyrazolo[5,1-b]thiazole-7-carboxamide]
IC50 [1]: 0.0042 µM | IC50 (VEGFR2, unphosphorylated): > 7.5 µM

Cc1ncc(C(=O)NCCN2CCCC2(C)C)cc1NC(=O)c1cnn2cc(-c3cnn(Cc4cc(O)no4)c3)sc12 [Example 363, N-(5-((2-(2,2-dimethylpyrrolidin-1-yl)ethyl)carbamoyl)-2-methylpyridin-3-yl)-2-(1-((3-hydroxyisoxazol-5-yl)methyl)-1H-pyrazol-4-yl)pyrazolo[5,1-b]thiazole-7-carboxamide]
IC50 [1]: 0.0141 µM | IC50 (VEGFR2, unphosphorylated): > 7.5 µM

Cc1ncc(NC(=O)CN2C[C@@H](CO)O[C@@H](C)C2)cc1NC(=O)c1cnn2cc(-c3cnn(C)c3)sc12 (relative stereo) [Example 378, N-(5-(2-(cis-2-(hydroxymethyl)-6-methylmorpholino)acetamido)-2-methylpyridin-3-yl)-2-(1-methyl-1H-pyrazol-4-yl)pyrazolo[5,1-b]thiazole-7-carboxamide]
IC50 [1]: 0.0102 µM | IC50 (VEGFR2, unphosphorylated): > 2.5 µM

Cc1ncc(NC(=O)CN2CCCC[C@H]2C)cc1NC(=O)c1cnn2cc(-c3cnn(CCO)c3)sc12 [Example 33, (R)-2-(1-(2-hydroxyethyl)-1H-pyrazol-4-yl)-N-(2-methyl-5-(2-(2-methyl-piperidin-1-yl)acetamido)pyridin-3-yl)pyrazolo[5,1-b]thiazole-7-carboxamide]
IC50 [1]: 0.0093 µM | IC50 (VEGFR2, unphosphorylated): > 7.5 µM

COc1ncccc1-c1cn2ncc(C(=O)Nc3cc(NC(=O)CN4C[C@H](CO)OC(C)(C)C4)cnc3C)c2s1 [Example 379, (R)—N-(5-(2-(6-(hydroxymethyl)-2,2-dimethylmorpholino)acetamido)-2-methylpyridin-3-yl)-2-(2-methoxypyridin-3-yl)pyrazolo[5,1-b]thiazole-7-carboxamide]
IC50 [1]: 0.0027 µM | IC50 (VEGFR2, unphosphorylated): > 2.5 µM

COC/C=C/c1cn2ncc(C(=O)Nc3cc(NC(=O)CN4C[C@H](C)O[C@@H](C)C4)cnc3C)c2s1 (relative stereo) [Example 367, N-(5-(2-(trans-2,6-dimethylmorpholino)acetamido)-2-methylpyridin-3-yl)-2-((E)-3-methoxyprop-1-en-1-yl)pyrazolo[5,1-b]thiazole-7-carboxamide]
IC50 [1]: 0.0173 µM | IC50 (VEGFR2, unphosphorylated): > 7.5 µM

COc1ncccc1-c1cn2ncc(C(=O)Nc3cc(C(=O)NCCN4CC(C)(C)C4)cnc3C)c2s1 [Example 387, N-(5-((2-(3,3-dimethylazetidin-1-yl)ethyl)carbamoyl)-2-methylpyridin-3-yl)-2-(2-methoxypyridin-3-yl)pyrazolo[5,1-b]thiazole-7-carboxamide]
IC50 [1]: 0.0015 µM | IC50 (VEGFR2, unphosphorylated): > 7.5 µM
